The subject of data set [1] is ZR-75-1 cells. As to the kind of experiment: Cell proliferation assay (3H-thymidine incorporation, 6 days). It counts as cell-based, human. The following applies: for cell proliferation (Example 1): six day period. The procedure: The ZR-75-1 cell line (passage 89) was obtained from the American Type Culture Collection (Rockville, Maryland). The cells were cultured in RPMI-1640 medium containing 10% heat-inactivated fetal calf serum, 200 µM L-glutamine, […], 1.5 U/ml penicillin, and 1.5 µg/ml streptomycin in 5% CO2 at 37°C. The cells were passaged twice weekly.
(§1) Cells were first seeded at initial density of 1x10^5 cells per ml in quadruplicates in 24 multi-well flat bottom plates (Costar). Cells were then allowed to adhere and grow in phenol red-free […] media supplemented with 10 % heat-inactivated fetal calf serum (FCS), 200 µM L-glutamine, 10 mM HEPES, 2.5 U/ml penicillin and 2.5 µg/ml streptomycin in 5% CO2 at 37°C. After 48 hours, four wells were sacrificed and counted to determine plating efficiency. In the remaining wells, medium was removed by aspiration and cells in each well were exposed to the media containing the specified steroid. The controls containing only medium or medium with vehicle were also prepared. In all samples, medium was changed every 48 hours. At the pre-established time-point. Cells were removed by trypsinization and washed. Cell number and viability were determined by trypan blue exclusion using a hemocytometer. Parallel cultures were also run to determine cell proliferation.
(§2) For cell proliferation assays, cell suspensions were prepared by trypsinization of cells from cultures prepared in accord with methods described above. Cell viability was determined by trypan blue exclusion. The cells were then seeded in flat-bottom 96-well microtiter plates at a density of 2X10^3 cells/well and were allowed to rest for 48 hours in order to adhere. Non-adherent dead cells were removed by aspiration. Cells were then grown in media without phenol red. Some of the media contained supplements as indicated above. The active agents or vehicle control were added to the media. The cells were then grown for six days. Media was changed on the samples every 48 hours. On day 6, cells were pulsed with 1 µCi[…] for the last 6 hours of incubation before harvesting onto glass filter using a HPD cell harvester (Cambridge Technology, Watertown, Massachusetts) and counted on a KLB scintillation counter.
(§3) Initial tests were carried out to determine the optimal (maximal) dose of αAED required to inhibit growth of the ZR-75-1 cells in in vitro as determined by tritiated tymidine incorporation. […] To ensure that inhibition was not due to cytotoxicity, cell count and viability were assessed by trypan blue exclusion.
ZR-75-1 cells (2X10^3) were treated as described above over a six day period with differing concentrations of αAED or with vehicle-only cultures. The medium was changed every 48 hours. Cells were pulsed with ^3H-thymidine for the last six hours of incubation.

Data set [2] has as its system ZR-75-1 cells. Description: Cell count and viability by trypan blue exclusion. It counts as cell-based, human. As to the method: as §1, §3
A further data set deals with P388D1 cells. As to the kind of experiment: Growth of lymphoid neoplasm cells in the presence of RU486. As to conditions: RU486 at 0.5 µM and 1.0 µM. In kind it is cell-based. The procedure:
as §2
Effect of αAED on growth of lymphoid neoplasm (P388D1 cells obtained from the American Type Culture Collection) in the presence of RU486 at concentration of 0.5 µM and 1.0 µM was studied in accord with the methods described above.

The subject of the next data set is RAW 264.7. Description: Proliferation of macrophage myeloma cells. In kind it is cell-based, murine. As to the method: as §2
Effects of αAED at doses of 50 ηM and 100 ηM doses on murine macrophage myeloma cells (RAW 264.7, obtained from the American Type Culture Collection) was studied.

Structures are written as SMILES.

Regarding `C[C@]12CC[C@H]3[C@@H](CC=C4C[C@@H](O)CC[C@@]43C)[C@@H]1CC[C@H]2O` [αAED, 5-androstene 3β,17α diol], the “proliferation in the presence of estradiol (Example 3)” value in the data set with ZR-75-1 cells [1] (1 ηM estradiol, higher doses of αAED, 6 day period) is “suppressed proliferation”. Also, the “cell proliferation (Example 1)” value in the data set on ZR-75-1 cells [1] (6.25 ηM) is listed as “increasing proliferation”; in the data set with ZR-75-1 cells [1] (25 ηM) it was “decreasing cell proliferation”; in the data set on ZR-75-1 cells [1] (50 ηM), “marked decrease”. Moreover, the “maximal dose of anti-proliferative effect” value with ZR-75-1 cells [1] (ZR-75-1 cells, 6 days) is on record as 100 ηM. The “growth of ZR-75-1 cells” value in the data set with ZR-75-1 cells [1] (concentration of 25 nM or greater) was “significantly inhibited the growth”. For the same molecule, in the data set on ZR-75-1 cells [1] (concentrations between 6.25 and 12.5 ηM (P<0.01)), the “proliferation of ZR-75-1 cells compared with the vehicle control” value is “stimulated proliferation”. In the data set on ZR-75-1 cells [1] (doses ranging from 3.13 ηM to 50 ηM, after 6 days), the “effect on the growth of ZR-75-1 cells compared to vehicle control” value is given as “biphasic effect”. Besides, the “proliferation of cells in the presence of RU486 (Example 5)” value in the data set with ZR-75-1 cells [1] (αAED with 0.5 µM RU486) was “synergistic action to decrease proliferation of cells”. Further, the “proliferation of cells in the presence of βAED (Example 2)” value with ZR-75-1 cells [1] (βAED constant at 2.5 ηM, all concentrations of αAED) is “decreased proliferation”. Also, the “antiproliferative effects in the presence of Flutamide (Example 4)” value in the data set with ZR-75-1 cells [1] (≥6.25 ηM αAED, with Flutamide, 6 day period) is “greatly enhanced”. In the data set with ZR-75-1 cells [2], the “cytotoxicity (cell count and viability)” value is “not toxic”. The “growth of lymphoid neoplasm in the presence of RU486 (Example 8)” value in the data set with P388D1 cells is recorded as “increased effectiveness over use of one agent”. For the same molecule, the “proliferation of murine macrophage myeloma cells (Example 9)” value in the data set with RAW 264.7 (50 ηM) and in the data set on RAW 264.7 (100 ηM) was “significant inhibition of proliferation” each time.

Take `C[C@]12CC[C@H]3[C@@H](CC=C4C[C@@H](O)CC[C@@]43C)[C@@H]1CC[C@@H]2O` [βAED, 5-androstene 3β,17β diol, reference compound]: the “antiproliferative effect on the growth of the ZR-75-1 cells” value in the data set on ZR-75-1 cells [1] (alone at 100 ηM) was “did not have any antiproliferative effect”.
